Laboratory results from US6673549B1, “Genes expressed in C3A liver cell cultures treated with steroids” (Incyte Corporation, priority 2000, dated 2004).

Test system: human C3A liver cells
Test: Microarray differential gene expression in human C3A liver cell cultures treated with steroids
Type: cell-based
Text: Incyte clones represent template sequences derived from the LWESEQ GOLD assembled human sequence database (Incyte Genomics). In cases where more than one clone was available for a particular template, the 5′-most clone in the template was used on the microarray. The HUMAN GENOME GEM series 1-4 microarrays (Incyte Genomics) contain 28,626 array elements which represent 10,068 annotated clusters and 18,558 unannotated clusters. For the UNIGEM series microarrays (Incyte Genomics), Incyte clones were mapped to non-redundant Unigene clusters (Unigene database (build 46), NCBI; Shuler (1997) J Mol Med 75:694-698), and the 5′ clone with the strongest BLAST alignment (at least 90% identity and 100 bp overlap) was chosen, verified, and used in the construction of the microarray. The UNIGEM V microarray (Incyte Genomics) contains 7075 array elements which represent 4610 annotated genes and 2,184 unannotated clusters.
To construct microarrays, cDNAs were amplified from bacterial cells using primers complementary to vector sequences flanking the cDNA insert. […] Amplified cDNAs were then purified using […]-400 columns (APB). Purified cDNAs were immobilized on polymer-coated glass slides. Glass microscope slides (Corning, Corning N.Y.) were cleaned by ultrasound in 0.1% SDS and acetone, with extensive distilled water washes between and after treatments. Glass slides were etched in 4% hydrofluoric acid (VWR Scientific Products, West Chester Pa.), washed thoroughly in distilled water, and coated with 0.05% aminopropyl silane (Sigma Aldrich) in 95% ethanol. Coated slides were cured in a 110° C. oven. cDNAs were applied to the coated glass substrate using a procedure described in U.S. Pat. No. 5,807,522. One microliter of the cDNA at an average concentration of 100 ng/μl was loaded into the open capillary printing element by a high-speed robotic apparatus which then deposited about 5 nl of cDNA per slide.
Microarrays were UV-crosslinked using a […] UV-crosslinker (Stratagene), and then washed at room temperature once in 0.2% SDS and three times in distilled water. Non-specific binding sites were blocked by incubation of microarrays in 0.2% casein in phosphate buffered saline (Tropix, Bedford Mich.) for 30 minutes at 60° C. followed by washes in 0.2% SDS and distilled water as before.
In all cases, mRNA from untreated early confluent C3A cells were prepared in parallel as described below.
Cells were harvested and lysed in 1 ml of TRIZOL reagent (5×10^6 cells/ml; Life Technologies). Lysates were vortexed thoroughly, incubated at room temperature for 2-3 minutes, and extracted with 0.5 ml chloroform. The extract was mixed, incubated at room temperature for 5 minutes, and centrifuged at 15,000 rpm for 15 minutes at 4° C. The aqueous layer was collected, and an equal volume of isopropanol was added. Samples were mixed, incubated at room temperature for 10 minutes, and centrifuged at 15,000 rpm for 20 minutes at 4° C. The supernatant was removed, and the RNA pellet was washed with 1 ml of 70% ethanol, centrifuged at 15,000 rpm at 4° C., and resuspended in RNAse-free water. The concentration of the RNA was determined by measuring the optical density at 260 nm.
Poly(A) RNA was prepared using an OLIGOTEX mRNA kit (Qiagen) with the following modifications: OLIGOTEX beads were washed in tubes instead of on spin columns, resuspended in elution buffer, and then loaded onto spin columns to recover mRNA. To obtain maximum yield, the mRNA was eluted twice.
Each poly(A) RNA sample was reverse transcribed using MMLV reverse-transcriptase, 0.05 pg/μl oligo-d(T) primer (21mer), 1× first strand buffer, 0.03 units/ul RNAse inhibitor, 500 uM dATP, 500 uM dGTP, 500 uM dTTP, 40 uM dCTP, and 40 uM either dCTP-Cy3 or dCTP-Cy5 (APB).

## C[C@@H]1C[C@H]2[C@@H]3CCC4=CC(=O)C=C[C@]4(C)[C@@]3(F)[C@@H](O)C[C@]2(C)[C@@]1(O)C(=O)CO [dexamethasone]
Clone ID 167081
  Ave DE [log2] (C3A treated with steroid): −1.10 log2
Clone ID 220378
  Ave DE [log2] (C3A treated with steroid): 0.39 log2
Clone ID 380006
  Ave DE [log2] (C3A treated with steroid): −0.98 log2
Clone ID 419492
  Ave DE [log2] (C3A treated with steroid): 1.08 log2
Clone ID 494905
  Ave DE [log2] (C3A treated with steroid): 0.75 log2
Clone ID 508943
  Ave DE [log2] (C3A treated with steroid): −1.26 log2
Clone ID 869702
  Ave DE [log2] (C3A treated with steroid): 0.55 log2
Clone ID 1259841
  Ave DE [log2] (C3A treated with steroid): 0.84 log2
Clone ID 1275616
  Ave DE [log2] (C3A treated with steroid): 0.97 log2
Clone ID 1323616
  Ave DE [log2] (C3A treated with steroid): 0.89 log2
Clone ID 1500810
  Ave DE [log2] (C3A treated with steroid): −0.70 log2
Clone ID 1501410
  Ave DE [log2] (C3A treated with steroid): −1.16 log2
Clone ID 1573840
  Ave DE [log2] (C3A treated with steroid): 0.86 log2
Clone ID 1823946
  Ave DE [log2] (C3A treated with steroid): −1.20 log2
Clone ID 1857664
  Ave DE [log2] (C3A treated with steroid): −0.71 log2
Clone ID 1876829
  Ave DE [log2] (C3A treated with steroid): −0.94 log2
Clone ID 1930847
  Ave DE [log2] (C3A treated with steroid): −0.67 log2
Clone ID 1946155
  Ave DE [log2] (C3A treated with steroid): 0.93 log2
Clone ID 2025128
  Ave DE [log2] (C3A treated with steroid): 0.90 log2
Clone ID 2086783
  Ave DE [log2] (C3A treated with steroid): −1.18 log2
Clone ID 2088104
  Ave DE [log2] (C3A treated with steroid): −1.20 log2
Clone ID 2095329
  Ave DE [log2] (C3A treated with steroid): −1.37 log2
Clone ID 2173002
  Ave DE [log2] (C3A treated with steroid): 0.75 log2
Clone ID 2253102
  Ave DE [log2] (C3A treated with steroid): −1.20 log2
Clone ID 2269058
  Ave DE [log2] (C3A treated with steroid): −1.15 log2
Clone ID 2285181
  Ave DE [log2] (C3A treated with steroid): −1.27 log2
Clone ID 2285521
  Ave DE [log2] (C3A treated with steroid): −1.22 log2
Clone ID 2287703
  Ave DE [log2] (C3A treated with steroid): −1.24 log2
Clone ID 2287724
  Ave DE [log2] (C3A treated with steroid): −1.16 log2
Clone ID 2293496
  Ave DE [log2] (C3A treated with steroid): −0.82 log2
Clone ID 2294968
  Ave DE [log2] (C3A treated with steroid): −0.94 log2
Clone ID 2655279
  Ave DE [log2] (C3A treated with steroid): −1.21 log2
Clone ID 2698777
  Ave DE [log2] (C3A treated with steroid): −1.48 log2
Clone ID 2703282
  Ave DE [log2] (C3A treated with steroid): −0.86 log2
Clone ID 2947188
  Ave DE [log2] (C3A treated with steroid): −0.98 log2
Clone ID 3057272
  Ave DE [log2] (C3A treated with steroid): 0.98 log2
Clone ID 3115505
  Ave DE [log2] (C3A treated with steroid): −1.10 log2
Clone ID 3139631
  Ave DE [log2] (C3A treated with steroid): −0.82 log2
Clone ID 3973887
  Ave DE [log2] (C3A treated with steroid): −1.06 log2
Clone ID 4089291
  Ave DE [log2] (C3A treated with steroid): −0.77 log2
Clone ID 4284270
  Ave DE [log2] (C3A treated with steroid): −0.88 log2
Clone ID 4377432
  Ave DE [log2] (C3A treated with steroid): 0.87 log2
Clone ID 4884214
  Ave DE [log2] (C3A treated with steroid): −0.77 log2
Clone ID 5091002
  Ave DE [log2] (C3A treated with steroid): −1.42 log2
Clone ID 5206821
  Ave DE [log2] (C3A treated with steroid): 0.17 log2
Clone ID 5426158
  Ave DE [log2] (C3A treated with steroid): −1.03 log2

## C[C@@H]1C[C@H]2[C@@H]3CCC4=CC(=O)C=C[C@]4(C)[C@@]3(F)[C@@H](O)C[C@]2(C)[C@@]1(O)C(=O)CO [dexomethasone]
Clone ID 2947188
  Ave DE [log2] (C3A treated with steroid): −0.98 log2

## C#C[C@]1(O)CC[C@H]2[C@@H]3CCC4=Cc5oncc5C[C@]4(C)[C@H]3CC[C@@]21C [donozol]
Clone ID 2407620
  Ave DE [log2] (C3A treated with steroid): −0.26 log2
Clone ID 3474091
  Ave DE [log2] (C3A treated with steroid): −0.29 log2

## C[C@]12C=CC(=O)C=C1CC[C@@H]1[C@@H]2C(=O)C[C@@]2(C)[C@H]1CC[C@]2(O)C(=O)CO [prednisone]
Clone ID 998615
  Ave DE [log2] (C3A treated with steroid): 0.91 log2
Clone ID 1329625
  Ave DE [log2] (C3A treated with steroid): 0.42 log2
Clone ID 1401312
  Ave DE [log2] (C3A treated with steroid): −0.82 log2
Clone ID 1496011
  Ave DE [log2] (C3A treated with steroid): 0.51 log2
Clone ID 1611629
  Ave DE [log2] (C3A treated with steroid): 0.94 log2
Clone ID 1679595
  Ave DE [log2] (C3A treated with steroid): 0.99 log2
Clone ID 1716458
  Ave DE [log2] (C3A treated with steroid): 1.03 log2
Clone ID 1740179
  Ave DE [log2] (C3A treated with steroid): 0.86 log2
Clone ID 1946155
  Ave DE [log2] (C3A treated with steroid): 0.92 log2
Clone ID 1951845
  Ave DE [log2] (C3A treated with steroid): 0.79 log2
Clone ID 2086783
  Ave DE [log2] (C3A treated with steroid): −1.13 log2
Clone ID 2088104
  Ave DE [log2] (C3A treated with steroid): −1.15 log2
Clone ID 2095329
  Ave DE [log2] (C3A treated with steroid): −1.21 log2
Clone ID 2227273
  Ave DE [log2] (C3A treated with steroid): 1.01 log2
Clone ID 2252884
  Ave DE [log2] (C3A treated with steroid): −1.03 log2
Clone ID 2253102
  Ave DE [log2] (C3A treated with steroid): −1.13 log2
Clone ID 2269058
  Ave DE [log2] (C3A treated with steroid): −1.06 log2
Clone ID 2285521
  Ave DE [log2] (C3A treated with steroid): −1.09 log2
Clone ID 2287703
  Ave DE [log2] (C3A treated with steroid): −1.07 log2
Clone ID 2430165
  Ave DE [log2] (C3A treated with steroid): 0.23 log2
Clone ID 2607834
  Ave DE [log2] (C3A treated with steroid): 0.29 log2
Clone ID 2698777
  Ave DE [log2] (C3A treated with steroid): −1.25 log2
Clone ID 2734007
  Ave DE [log2] (C3A treated with steroid): 0.88 log2
Clone ID 2908212
  Ave DE [log2] (C3A treated with steroid): 0.42 log2
Clone ID 3960194
  Ave DE [log2] (C3A treated with steroid): 1.01 log2
Clone ID 4252872
  Ave DE [log2] (C3A treated with steroid): 0.77 log2
Clone ID 4543123
  Ave DE [log2] (C3A treated with steroid): 1.27 log2
Clone ID 4630674
  Ave DE [log2] (C3A treated with steroid): 0.86 log2
Clone ID 4894508
  Ave DE [log2] (C3A treated with steroid): −1.03 log2
Clone ID 5102951
  Ave DE [log2] (C3A treated with steroid): 0.85 log2
Clone ID 5326983
  Ave DE [log2] (C3A treated with steroid): 0.50 log2
Clone ID 5543385
  Ave DE [log2] (C3A treated with steroid): 1.00 log2

## CC(=O)[C@H]1CC[C@H]2[C@@H]3CCC4=CC(=O)CC[C@]4(C)[C@H]3CC[C@]12C [progesterone]
Clone ID 167081
  Ave DE [log2] (C3A treated with steroid): −1.12 log2
Clone ID 1323327
  Ave DE [log2] (C3A treated with steroid): 0.83 log2
Clone ID 1600180
  Ave DE [log2] (C3A treated with steroid): 1.06 log2
Clone ID 1816768
  Ave DE [log2] (C3A treated with steroid): 0.28 log2
Clone ID 2655279
  Ave DE [log2] (C3A treated with steroid): −1.03 log2
Clone ID 2753065
  Ave DE [log2] (C3A treated with steroid): 0.78 log2
Clone ID 3408804
  Ave DE [log2] (C3A treated with steroid): −1.16 log2
Clone ID 3528232
  Ave DE [log2] (C3A treated with steroid): 0.99 log2
Clone ID 3876612
  Ave DE [log2] (C3A treated with steroid): 0.26 log2
